Measurements published in ChEMBL document CHEMBL1154779, “Synthesis and adrenolytic activity of 1-(1H-indol-4-yloxy)-3-(2-(2-methoxy phenoxy)ethylamino)propan-2-ol analogs and its enantiomers. Part 2” (Eur J Med Chem, 2009).

Assays:
Rattus norvegicus [1] = assay: Effect on heart rate in anesthetized Wistar rat assessed as P-Q intervals time at 1 mg/kg, iv after 1 min by electrocardiography; type: functional
Rattus norvegicus [2] = assay: Effect on heart rate in anesthetized Wistar rat assessed as heart beats per min at 1 mg/kg, iv after 5 mins by electrocardiography; type: functional
Rattus norvegicus [3] = assay: Effect on heart rate in anesthetized Wistar rat assessed as heart beats per min at 1 mg/kg, iv after 1 min by electrocardiography; type: functional
Rattus norvegicus [4] = assay: Antiarrhythmic activity in Wistar rat assessed as inhibition of adrenaline-induced premature ventricular beats at 1 mg/kg, iv administered 15 mins before adrenaline challenge measured after 15 mins by electrocardiography; type: functional; conditions: Heart
Rattus norvegicus [5] = assay: Effect on heart rate in anesthetized Wistar rat assessed as QRS complex time at 1 mg/kg, iv after 1 min by electrocardiography; type: functional
Rattus norvegicus [6] = assay: Effect on heart rate in anesthetized Wistar rat assessed as heart beats per min at 1 mg/kg, iv after 15 mins by electrocardiography; type: functional
Rattus norvegicus [7] = assay: Effect on heart rate in anesthetized Wistar rat assessed as P-Q intervals time at 1 mg/kg, iv after 15 mins by electrocardiography; type: functional
Rattus norvegicus [8] = assay: Effect on heart rate in anesthetized Wistar rat assessed as QRS complex time at 1 mg/kg, iv after 5 mins by electrocardiography; type: functional
[9] = Displacement of [3H]CGP12177 from beta-1 adrenergic receptor in Wistar rat cerebral cortex membrane by liquid scintillation counting; type: tissue-based
Rattus norvegicus [10] = assay: Effect on heart rate in anesthetized Wistar rat assessed as Q-T intervals time at 1 mg/kg, iv after 5 mins by electrocardiography; type: functional
Rattus norvegicus [11] = assay: Effect on heart rate in anesthetized Wistar rat assessed as Q-T intervals time at 1 mg/kg, iv after 15 mins by electrocardiography; type: functional
Rattus norvegicus [12] = assay: Effect on heart rate in anesthetized Wistar rat assessed as QRS complex time at 1 mg/kg, iv after 15 mins by electrocardiography; type: functional
Rattus norvegicus [13] = assay: Effect on heart rate in anesthetized Wistar rat assessed as Q-T intervals time at 1 mg/kg, iv after 1 min by electrocardiography; type: functional
Rattus norvegicus [14] = assay: Effect on heart rate in anesthetized Wistar rat assessed as P-Q intervals time at 1 mg/kg, iv after 5 mins by electrocardiography; type: functional

| Ki [9] [nM] | SMILES | Activity (Rattus norvegicus [1]) [ms] | Activity (Rattus norvegicus [2]) [bpm] | Activity (Rattus norvegicus [3]) [bpm] | ED50 (Rattus norvegicus [4]) [mg/kg] | Activity (Rattus norvegicus [5]) [ms] | Activity (Rattus norvegicus [6]) [bpm] | Activity (Rattus norvegicus [7]) [ms] | Activity (Rattus norvegicus [8]) [ms] | Activity (Rattus norvegicus [10]) [ms] | Activity (Rattus norvegicus [11]) [ms] | Activity (Rattus norvegicus [12]) [ms] | Activity (Rattus norvegicus [13]) [ms] | Activity (Rattus norvegicus [14]) [ms] |
| --- | --- | --- | --- | --- | --- | --- | --- | --- | --- | --- | --- | --- | --- | --- |
| – | COc1ccccc1OCCNCC(O)COc1cccc2[nH]c3ccccc3c12 (stereo not drawn) [CARVEDILOL] | 50 | 340.3 | 345.2 | 0.25 | – | – | – | – | – | – | – | – | – |
| 3 | COc1ccccc1OCCNCC(O)COc1cccc2[nH]ccc12 (racemic) | 47.2 | 294.5 | 298.7 | 0.34 | 28.4 | 287.3 | 46.2 | 24.9 | 69 | 72.8 | 26.9 | 69.2 | 48.1 |
